From patent US6177425A, “Pyrrolopyrrolone derivatives” (Glaxo Wellcome Inc., priority 1997, dated 2001) come the findings set out here.

Counter-ions that a name gives are not always drawn.

This assay concerns the target T1, human neutrophil elastase (Homo sapiens, UniProt P08246).
T1 sequence (P08246 30-247 limits assumed): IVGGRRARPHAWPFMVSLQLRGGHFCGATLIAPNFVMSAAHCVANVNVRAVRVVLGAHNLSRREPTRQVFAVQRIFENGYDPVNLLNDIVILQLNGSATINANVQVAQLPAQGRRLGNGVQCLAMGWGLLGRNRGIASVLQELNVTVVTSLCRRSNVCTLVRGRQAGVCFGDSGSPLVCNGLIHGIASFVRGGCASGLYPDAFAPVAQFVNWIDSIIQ
Description: In vitro Assays of Human Neutrophil Elastase. The class given is biochemical. To be noted: purified human neutrophil elastase 11.8 nM, pH 8.6, 15 min incubation at 30° C., 0.6 mM MeO-succinyl-alanyl-alanyl-prolyl-valyl-p-nitroanilide, 405 nm. The procedure:
In vitro Assays of Human Neutrophil Elastase Assay contents: 50 mM Tris/HCl (pH 8.6) 150 mM NaCl 11.8 nM purified human neutrophil elastase Suitable concentrations of compound under test diluted with water from a 10 mM stock solution in dimethylsulphoxide. Values above are final concentrations after the addition of substrate solution (see below). The mixture above is incubated for fifteen minutes at 30° C. at which time the remaining elastase activity is measured for 10 minutes in a BioTek 340i plate-reader, after the addition of 0.6 mM MeO-succinyl-alanyl-alanyl-prolyl-valyl-p-nitroanilide. The rate of increase in absorbance at 405 nm is proportional to elastase activity. Enzyme activity is plotted against concentration of inhibitor and an IC50 determined using curve fitting software. 1. The compounds of Examples 1 to 7 were tested in the in vitro elastase test described earlier in the description.
Broadly, the IC50 is the concentration needed to halve the response being measured. `CCC[C@H]1C(=O)N(S(C)(=O)=O)[C@H]2CN(C(=O)c3ccc(CN4CCCCC4)cc3)C[C@H]12` (relative stereo) [Example 4, rel-(3R,3aS,6aR)-1-Methanesulfonyl-5-(4-piperidin-1-ylmethyl-benzoyl)-3-propyl-hexahydro-pyrrolo[3,4-b]pyrrol-2-one hydrochloride] had an IC50 of 296 nM. That is a sub-micromolar value. `CCC[C@H]1C(=O)N(S(C)(=O)=O)[C@H]2CN(S(=O)(=O)c3ccc(NC(C)=O)cc3)C[C@H]12` (relative stereo) [Example 3, rel-N-[4-(1-Methanesulfonyl-2-oxo-3R-propylhexahydro-(3aS,6aR)-pyrrolo[3,4-b]pyrrole-5-sulfonyl)-phenyl]acetamide] displayed an IC50 of 229 nM. The figure for `CCC[C@H]1C(=O)N(S(C)(=O)=O)[C@H]2CN(C(=O)c3cc(CN(C)C)on3)C[C@H]12` (relative stereo) [Example 7, rel-(3R,3aS,6aR)-5-(5-Dimethylaminomethyl-isoxazole-3-carbonyl)-1-methanesulfonyl-3-propyl-hexahydro-pyrrolo[3,4-b]pyrrol-2-one hydrochloride] is 399 nM; for `CCC[C@H]1C(=O)N(S(C)(=O)=O)[C@H]2CN(C(=O)c3ccc(CN4CCOCC4)cc3)C[C@H]12` (relative stereo) [Example 5, rel-(3R,3aS,6aR)-1-Methanesulfonyl-5-(4-morpholin-4-ylmethyl-benzoyl)-3-propyl-hexahydro-pyrrolo[3,4-b]pyrrol-2-one hydrochloride] it is 222 nM; for `CCC[C@H]1C(=O)N(S(C)(=O)=O)[C@H]2CN(C(=O)CCCN3CCCCC3)C[C@H]12` (relative stereo) [Example 2, rel-(3R,3aS,6aR)-1-Methanesulfonyl-5-(4-piperidin-1-yl-butyryl)-3-propyl-hexahydro-pyrrolo[3,4-b]pyrrol-2-one] it is 900 nM. In the case of `CCC[C@H]1C(=O)N(S(C)(=O)=O)[C@H]2CN(C(=O)c3cc(CN4CCOCC4)on3)C[C@H]12` (relative stereo) [Example 6, rel-(3R,3aS,6aR)-1-Methanesulfonyl-5-(5-morpholin-4-ylmethyl-isoxazole-3-carbonyl)-3-propyl-hexahydro-pyrrolo[3,4-b]pyrrol-2-one hydrochloride] it was 146 nM. The figure for `CCC[C@H]1C(=O)N(S(C)(=O)=O)[C@H]2CN(C(=O)C=CCN3CCCCC3)C[C@H]12` (relative stereo) [Example 1, rel-(3R,3aS,6aR)-1-Methanesulfonyl-5-(4-piperidin-1-yl-but-2-enoyl)-3-propyl-hexahydro-pyrrolo[3,4-b]pyrrol-2-one hydrochloride] is 227 nM.
